Source: PubChem BioAssay (NCI)
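The compound was tested at five concentrations on cells cultured in 96-well plates, with a 48-hour exposure period. Definition used: TGI = concentration required for complete inhibition of growth.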

Tests used:
Assay in all cases: NCI tumour cell line growth inhibition, 48 h
K-562 leukemia = tested on: K-562 leukemia
OVCAR-3 ovarian = tested on: OVCAR-3 ovarian
COLO 205 colon = tested on: COLO 205 colon
MOLT-4 leukemia = tested on: MOLT-4 leukemia
RPMI-8226 leukemia = tested on: RPMI-8226 leukemia
MDA-MB-435 = tested on: MDA-MB-435
HT29 colon = tested on: HT29 colon
ACHN renal = tested on: ACHN renal
HCT-15 colon = tested on: HCT-15 colon
OVCAR-4 ovarian = tested on: OVCAR-4 ovarian

Row | Structure (SMILES) | TGI (K-562 leukemia) [µM] | TGI (OVCAR-3 ovarian) [µM] | TGI (COLO 205 colon) [µM] | TGI (MOLT-4 leukemia) [µM] | TGI (RPMI-8226 leukemia) [µM] | TGI (MDA-MB-435) [µM] | TGI (HT29 colon) [µM] | TGI (ACHN renal) [µM] | TGI (HCT-15 colon) [µM] | TGI (OVCAR-4 ovarian) [µM]
1 | O=C(O)CCC1NC(/C(=C/c2ccccc2O)NC(=O)c2ccccc2)OC1=O (stereo not given) | > 100 | > 100 | > 100 | > 100 | > 100 | > 100 | > 100 | > 100 | > 100 | > 100
2 | CN(/N=C\c1ccc2ccccc2c1)C1=NCCCN1 | 34.2 | 54.1 | 25.3 | 8.93 | 50.7 | 30.8 | 31.1 | 35.9 | 74.4 | > 100
3 | O=c1c2cc(I)ccc2nc(-c2cccs2)n1O | > 100 | 42.8 | > 100 | > 100 | > 100 | > 100 | > 100 | > 100 | > 100 | 96.9
4 | O=C1C=C/C(=C/[C@H]2SSC=C[C@]23C=CC(=O)C3)C1 | > 100 | 85.6 | 53 | 7.16 | > 100 | > 53.1 | 32.2 | 55.5 | 48.2 | > 74.2
5 | CN(C)C(=O)Oc1ccc(C(=S)Nc2ccccc2)cc1 | > 100 | > 100 | > 100 | 64 | > 100 | > 100 | > 100 | > 100 | > 100 | > 100
6 | C#CCOC(=O)C(=[N+]=[N-])C(=O)CC(C)C | > 10 | > 10 | > 10 | > 10 | > 10 | > 10 | > 10 | > 10 | > 10 | > 10
7 | CC1CCCN1CCCOC(=O)c1ccc(OC2C=CCCC2)cc1 (stereo not given) | 38.9 | > 100 | 31.4 | 55.3 | 68.2 | > 100 | 60.4 | > 100 | 53 | > 100
8 | COc1ccc(/C=N/NC(=S)Nc2cc(C)ccc2OC)cc1 | 13 | > 100 | 32.7 | 29.2 | 27.6 | > 100 | 79.4 | > 100 | > 100 | > 100
9 | Cc1nc(Cc2n[nH]c(C)n2)n[nH]1 | > 100 | > 100 | > 100 | > 100 | > 100 | > 100 | > 100 | > 100 | > 100 | > 100
10 | CC(=O)N1c2cc(N=NN(C)C)ccc2NC(=O)CC1C (stereo not given) | > 100 | > 100 | > 100 | > 100 | > 100 | > 100 | > 100 | > 100 | > 100 | > 100
11 | O=C1/C(=C/c2ccc(Cl)cc2)Oc2ccccc21 | > 100 | > 100 | > 100 | > 100 | > 100 | > 100 | > 100 | 43.4 | > 100 | > 100
12 | S=c1[nH]n2c(COc3cc(Cl)c(OCc4nnc5sc(=S)[nH]n45)cc3Cl)nnc2s1 | > 100 | > 100 | > 100 | > 100 | > 100 | > 100 | > 100 | > 100 | > 100 | > 100
13 | CCOC(=O)c1cn(CC)c2ccc3c(c2c1=O)S(=O)(=O)C=C3 | > 100 | > 100 | > 100 | > 100 | > 100 | > 100 | > 100 | > 100 | > 100 | > 100
14 | Cc1ccccc1Nc1nc2ccccc2nc1NS(=O)(=O)c1ccccc1 | > 100 | > 100 | > 100 | > 100 | > 100 | > 100 | > 100 | > 100 | > 100 | > 100
15 | c1cc2c(cc1[C@@H]1OC[C@@H]3[C@H]1CO[C@H]3c1ccc3c(c1)OCO3)OCO2 | > 100 | > 100 | > 100 | > 100 | > 100 | > 100 | > 100 | > 100 | > 100 | > 100
16 | Cc1cc2occ(S(=O)(=O)NC(=O)Nc3ccc(Cl)cc3)c(=O)c2c(=O)o1 | > 100 | > 100 | > 100 | > 100 | > 100 | > 100 | > 100 | > 100 | > 100 | > 100
17 | COc1ccc(CC[N+]2(C)COc3cc4oc(=O)cc(C)c4cc3C2)cc1OC (stereo not given) | > 100 | > 100 | > 100 | 18 | > 100 | > 100 | > 100 | > 100 | > 100 | > 100
18 | COc1cc2c(cc1OC)C(=O)/C(=C/c1ccc(N(C)C)cc1)CC2 | > 10 | > 10 | > 10 | > 10 | > 10 | > 10 | > 10 | > 10 | > 10 | > 10

Row | Structure (SMILES) | TGI (K-562 leukemia) [µM] | TGI (OVCAR-3 ovarian) [µM] | TGI (COLO 205 colon) [µM] | TGI (MOLT-4 leukemia) [µM] | TGI (RPMI-8226 leukemia) [µM] | TGI (MDA-MB-435) [µM] | TGI (HT29 colon) [µM] | TGI (ACHN renal) [µM] | TGI (HCT-15 colon) [µM] | TGI (OVCAR-4 ovarian) [µM]
19 | CC(C)[C@@H]1NC(=O)[C@@H]2N=C(O[C@H]2C)[C@H](C(C)C)NC(=O)C2N=C1O[C@H]2C | > 100 | > 100 | > 100 | > 100 | > 100 | > 100 | > 100 | > 100 | > 100 | > 100
20 | COc1ccc(N=Nc2c(N)nn3c(SC)c(C#N)c(N)nc23)cc1 | 4.65 | 7.1 | 26.4 | 7.53 | 6.28 | 27.1 | 25.5 | 28 | 26.4 | 35
21 | C=CCNC1=C2C[C@@H](C)C[C@@H](OC)[C@H](OC(=O)CCN(C)C)[C@H](C)/C=C(\C)[C@@H](OC(N)=O)[C@H](OC)/C=C\C=C(/C)C(=O)NC(=CC1=O)C2=O | > 43.7 | 3.61 | 1.23 | > 40.6 | > 41.9 | 13.2 | 12.8 | 22.2 | 19.9 | 26.7
22 | Cc1cc(=O)n2nc(CSc3nnc(Sc4cc(O)ccc4O)s3)sc2n1 | 41.1 | > 100 | > 100 | 59.5 | 61.4 | 32.7 | > 100 | > 100 | > 100 | > 100
23 | COc1ccc(/C=N/Nc2nnc3c(n2)c2ccccc2c2nn(-c4ccccc4Cl)nc23)cc1 | > 100 | > 100 | > 100 | > 100 | > 100 | > 100 | > 100 | > 100 | > 100 | > 100
24 | CC(=O)N[C@@H](Cc1ccc(O)cn1)C(=O)NC1CCCCC1 | > 100 | > 100 | > 100 | > 100 | > 100 | > 100 | > 100 | > 100 | > 100 | > 100
25 | COc1ccc(/C(CC2OC(=O)c3ccccc32)=N\NC(N)=O)cc1 (stereo not given) | > 100 | > 100 | > 100 | > 100 | > 100 | > 100 | > 100 | > 100 | > 100 | > 100
26 | COc1cc(/C=C2/Oc3c(OC)cccc3C2=O)ccc1O | > 100 | > 100 | > 100 | > 100 | > 100 | > 100 | > 100 | > 100 | > 100 | > 100
27 | Cc1ccc(NCCN(C)C)c2c(=O)c3cc(O)ccc3sc12 | 11.7 | 18.6 | 23.2 | 3.2 | 11.6 | 2.94 | 8.2 | 7.31 | 9.99 | 14.1
28 | Cc1cc(C)nc(NS(=O)(=O)c2ccc(Nc3c4ccccc4nc4ccc(C(=O)Nc5ccc(S(=O)(=O)N=C(N)N)cc5)cc34)cc2)n1 | 62.3 | > 100 | > 100 | > 100 | > 100 | > 100 | > 100 | > 100 | > 100 | > 100
29 | N#CC(NNC(=O)c1ccccc1O)c1c(O)ccc2ccccc12 (stereo not given) | > 66.3 | 23.8 | 23.6 | 37.8 | 43 | 43.4 | > 87.7 | 22.2 | 32.8 | 23.3
30 | NC(N)=NCCCC(NC(=O)c1c2ccccc2nc2ccccc12)C(=O)O (stereo not given) | > 100 | > 100 | > 100 | > 100 | > 100 | > 100 | > 100 | > 100 | > 100 | > 100
31 | O=C1c2ccccc2C(=O)c2sc(Nc3cc(Cl)ccc3Cl)nc21 | > 31.8 | 4.07 | 34 | > 30.4 | 22.6 | 3.85 | 36.1 | 19 | 9.48 | 18.2
32 | CCCCCCCCCCCCC1N=C(N)NC2(CCCO2)C1C(=O)OC (stereo not given) | 5.25 | 13.2 | 10.9 | 5.3 | 5.53 | 15.6 | 3.48 | 25.2 | 42.9 | 26.4
33 | C[n+]1c(-c2ccc(/C=N/NC(=O)C(=O)N/N=C/c3ccc(-c4cn5ccccc5[n+]4C)cc3)cc2)cn2ccccc21 | > 100 | > 100 | > 100 | > 100 | > 100 | > 100 | > 100 | > 100 | > 100 | > 100
34 | CC(C)=CCc1c2c(c(O)c3c(=O)c4c(oc13)-c1ccc(O)cc1OC4C=C(C)C)C=CC(C)(C)O2 (stereo not given) | 25.9 | 25.2 | 37.1 | 22.7 | 14.9 | 23.3 | 28.9 | 24.7 | 24.8 | 24.8
35 | COC1OC(C(=O)O)C2OC(C)(C)OC12 (stereo not given) | > 100 | > 100 | > 100 | > 100 | > 100 | > 100 | > 100 | > 100 | > 100 | > 100
36 | CC(NNC(=O)c1ccncc1)c1ccc(Cl)cc1Cl (stereo not given) | > 100 | > 100 | > 100 | > 100 | > 100 | > 100 | > 100 | > 100 | > 100 | > 100
